Assays:
[1] = test system: S. aureus DSM 20231; test: fitness (endpoint OD595 vs no drug) (fraction); higher = more growth
In short: (§1)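 Each well of a 384-well plate received 30 µl of culture at OD595 0.01, or 55 µl for S. pneumoniae. TSB, LB Lennox or CY served as media at 37 °C. OD595 was taken every 30 min for 14 h and corrected by subtracting the first reading. Fitness is the optical density at stationary-phase entry divided by the robust mean of no-drug controls, capped at 1.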

[2] = test system: S. pneumoniae D39V; test: as above
In short: as §1

[3] = test system: S. aureus Newman; test: as above
In short: as §1

[4] = test system: B. subtilis 168; test: as above
In short: as §1

[5] = test system: S. aureus DSM 20231; test: Bliss interaction score (quartile over a dose matrix) (fitness difference); higher = more antagonism (negative = synergy)
In short: (§2)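 At entry into stationary phase, OD595 was recorded and divided by the robust mean of the no-drug wells on that plate, with any value above 1 set to 1. This gives the fitness measure used throughout. Single-drug fitness was inferred from combination data, and the Bliss score, observed minus product-expected fitness, is shown as quartiles across technical, biological and donor/recipient replicates.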

[6] = test system: S. pneumoniae D39V; test: as above
In short: as §2

[7] = test system: S. aureus Newman; test: as above
In short: as §2

[8] = test system: B. subtilis 168; test: as above
In short: as §2
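Throughout, for Bliss interaction score (quartile over a dose matrix): first quartile when negative (synergy) and third quartile when positive (antagonism).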

O=C(O[C@@H]1Cc2c(O)cc(O)cc2O[C@@H]1c1cc(O)c(O)c(O)c1)c1cc(O)c(O)c(O)c1 [EGCG] + COc1ccc(C[C@H](N)C(=O)N[C@H]2[C@@H](O)[C@H](n3cnc4c(N(C)C)ncnc43)O[C@@H]2CO)cc1 [Puromycin]
fitness
Conditions	first compound 6.25 µg/mL	first compound 12.5 µg/mL	first compound 25 µg/mL	first compound 50 µg/mL
[1], partner 0.39 µg/mL	–	0.908	0.842	–
[1], partner 0.78 µg/mL	–	0.888	0.812	0.845
[1], partner 1.56 µg/mL	–	0.864	0.846	0.777
[2], partner 1 µg/mL	–	0.949	–	0.965
[2], partner 2 µg/mL	–	0.895	0.917	0.91
[2], partner 4 µg/mL	–	–	0.384	–
[3], partner 0.39 µg/mL	–	0.802	0.779	0.657
[3], partner 0.78 µg/mL	–	0.809	0.789	–
[3], partner 1.56 µg/mL	–	0.846	0.787	–
[4], partner 0.39 µg/mL	0.91	–	–	–
[4], partner 0.78 µg/mL	0.953	–	–	–
[4], partner 1.56 µg/mL	0.885	–	–	–

fitness, [1], one replicate
Conditions	first compound 12.5 µg/mL	first compound 25 µg/mL	first compound 50 µg/mL
partner 3.12 µg/mL	0.846	0.945	0.676
partner 6.24 µg/mL	0.745	0.527	0.172

Conditions	Bliss interaction score
[5]	0.09
[6]	0.0916
[7]	0.0755
[8]	-0.0503

O=C(O[C@@H]1Cc2c(O)cc(O)cc2O[C@@H]1c1cc(O)c(O)c(O)c1)c1cc(O)c(O)c(O)c1 [EGCG] + C[C@@H]1O[C@@H]1P(=O)(O)O [Fosfomycin]
fitness
Conditions	first compound 6.25 µg/mL	first compound 12.5 µg/mL	first compound 25 µg/mL	first compound 50 µg/mL
[1], partner 0.781 µg/mL	–	0.583	0.541	0.402
[1], partner 1.562 µg/mL	–	0.459	0.465	–
[1], partner 3.124 µg/mL	–	0.416	0.399	0.23
[2], partner 1.25 µg/mL	–	0.965	0.913	0.969
[2], partner 2.5 µg/mL	–	0.948	0.936	0.856
[2], partner 5 µg/mL	–	0.774	0.796	0.854
[3], partner 0.781 µg/mL	–	0.494	0.573	0.548
[3], partner 1.562 µg/mL	–	0.542	0.502	0.48
[3], partner 3.124 µg/mL	–	0.251	0.219	0.185
[4], partner 1.562 µg/mL	0.682	–	–	–
[4], partner 3.124 µg/mL	0.562	–	0.396	–
[4], partner 6.248 µg/mL	0.448	0.439	0.25	–

Conditions	Bliss interaction score
[5]	-0.113
[6]	0.0738
[7]	0.101
[8]	0.144

From the supplement of paper PMC10627819
